Read-outs that look alike come from different tables or passages of the source. Each block holds one compound with its values, some of them ahead of it.
What was measured:
[1] = biological target: T1, human β-amyloid containing plaques (Homo sapiens, UniProt P05067); assay: Determination of in vivo brain distribution (fluorescence of brain sections)
T1 construct: from tissue; host or cells: brain of transgenic (Tg) mice carrying the human β-APP gene
Procedure: Transgenic mice, designated “Tg”, were obtained. The transgenic mice carry the human gene for β-APP, a gene associated with β-amyloid deposition in the brain. The mice were treated with.the quinolinehydrazone compound, 4-methyl-7-methoxy-2-(4-quinolylmethylhydrazino)quinoline. Dosing was administered either intravenously or orally. The intravenous dose was administered as a single injection (50 μmol/kg). Orally-treated animals received a single dose (400 μmol/kg) via oral gavage, or were dosed twice-a-day for 10 days (400 μmol/kg/dose/day).
Age-matched normal mice served as a negative control, i.e. no plaque formation in the animals was indicated. The control mice were treated in the same manner as the transgenic mice, but with placebo.
In addition, a group of age-matched Tg mice were treated with the carrier vehicle only.
All animals were sacrificed beginning 1, 3 and 10 h after the final dose. Fresh brains of the animals were removed, bisected, and positioned in […] (OCT). The brains were immersed into 2-methylbutane, pre-cooled to […] with liquid nitrogen. The brains were cut into 20 μm thick sections at a temperature of −20° C. Brain sections were collected onto poly-L-lysine-coated glass microscopic slide and treated with (1 drop) of 75%, by volume (v/v), glycerin in […](PBS). […]
The section adjacent to each compound-treated section of the brain was stained with thioflavin S (Sigma Chemicals, Milwaukee, Wis., U.S.A.). Sections stained with thioflavin S served as a positive control for identifying plaque. The distribution of compound-associated fluorescence was compared with the distribution of thioflavin S-stained section in order to confirm whether the compound bound plaque.
All sections were examined 1 h later to assess artifactual drug diffusion within thawed sections over time.

[2] = Dose-dependent pharmacokinetics: plasma and brain Cmax after oral dosing; assay type: in vivo; conditions: normal mice, 400 to 3,200 μmol/kg
Procedure: Dose-proportionality characteristics were assessed by measuring the maximum concentration (Cmax) for plasma and brain concentrations after oral dosing of normal mice. […] Plasma and brain concentrations were measured by HPLC at 0.5 to 24 hours.

[3] = system: Neuronal cells; assay: In vitro antioxidant effect, neuronal cytoprotection model; assay type: cell-based; conditions: 1, 3, 10, 30 and 100 μM, with and without ferrous ammonium sulfate, 3 hours, LC/MS
Procedure: The 4-methyl-7-methoxy-2-(4-quinolylmethylene-hydrazino)quinoline was dissolved in 100×stock of aqueous Locke's buffer to obtain concentrations of 1, 3, 10, 30, and 100 μM solution. Neuronal cells were incubated in each compound solution with and without ferrous ammonium sulfate (200 μm) for 3 hours. High concentration supernatant was obtained from each sample. The samples were analyzed under liquid chromatography/mass spectrometry (LC/MS).

[4] = In vivo determination of plasma and brain exposure (AUC) after oral dosing; conditions: normal mice; for Kp: brain/plasma
Procedure: Plasma and brain exposure were assessed by measuring area under the curve (AUC) after oral dosing of normal mice.
The brain to plasma ratios were calculated and reported below.
The terminal half-life of compound in the brain was measured to determine the dosing frequency for 10-day tolerance studies. For the three highest doses, brain terminal half-life ranged from 5-7 h.

[5] = system: primary neuronal model of FAS-induced lipid peroxidation toxicity; assay: In vitro antioxidant effect, ferrous ammonium sulfate (FAS)-induced oxidative toxicity model; assay type: cell-based
Procedure: The 4-methyl-7-methoxy-2-(4-quinolylmethylene-hydrazino)quinoline was tested in a primary neuronal model of FAS-induced lipid peroxidation toxicity. The compound was treated in two manners. In one manner, the compound was solubilized as 100×stock in 100% dimethyl sulfoxide (DMSO) to afford panel A. In another manner, the compound was solubilized in aqueous Locke's buffer to give panel B.

[6] = biological target: T2, amyloid plaque in brains of Tg mice (Homo sapiens, UniProt P05067); assay: Postmortem staining of amyloid plaque in brain sections
T2 construct: from tissue; host or cells: frozen, methanol-fixed brain sections of 12-14 month-old Tg mice
Procedure: Brains from 12-14 month-old Tg mice were frozen and sectioned at −20° C. Each section was fixed in ice cold methanol (Aldrich Chemical Co., Milwaukee, Wis.) for 10 minutes, rinsed in buffer and incubated in 4-methyl-7-methoxy-2-(4-quinolylmethylenehydrazino)quinoline for 90 minutes at room temperature. […] Fluorescence intensity in Tg mouse amyloid decreased with drug concentration. […] The […] mouse brains were confirmed to be plaque-free.

[7] = system: amyloid-like proteins with a beta-pleated sheet conformation; conditions: in vitro; cited from earlier work
[8] = 30 and 100 μM, 1% DMSO experiments (panel A)

T1 sequence (P05067 672-713 limits assumed): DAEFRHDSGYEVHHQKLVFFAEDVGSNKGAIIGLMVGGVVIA
T2 sequence (P05067 672-713 limits assumed): as above

plaque burden shown in brain sections compared with thioflavin S stained sections ([1]; Tg mice receiving the compound): marked plaque burden
drug-related fluorescence in brain sections in areas of plaque formation ([1]; Tg mice, i.v. 50 μmol/kg or oral 400 μmol/kg, λex 365 nm, λem 400 nm): intense drug-related fluorescence
brain penetration ([1]; Tg mice, i.v. or oral dosing): brain penetrable
Cmax for brain, dose proportionality [2]: increases proportionally
Cmax for plasma, dose proportionality [2]: increases proportionally
Kp ([4]; mouse, oral, dose 51 μmole/kg, read-out: B/P Ratio AUC): 5.3
Kp ([4]; mouse, oral, dose 208 μmole/kg, read-out: B/P Ratio AUC): 3.2
Kp ([4]; mouse, oral, dose 421 μmole/kg, read-out: B/P Ratio AUC): 2.5
Kp ([4]; mouse, oral, dose 831 μmole/kg, read-out: B/P Ratio AUC): 5.7
Kp ([4]; mouse, oral, dose 1472 μmole/kg, read-out: B/P Ratio AUC): 5.7
Kp ([4]; mouse, oral, dose 3024 μmole/kg, read-out: B/P Ratio AUC): 7.3
Kp ([4]; mouse, oral, over the dose range tested, read-out: brain levels relative to plasma levels, average): 5
half-life ([4]; mouse, brain, oral, three highest doses, read-out: brain terminal half-life): 5 to 7 h
plasma exposure, saturation ([4]; oral, 3,024 μmol/kg): evidence of saturation
brain exposure, dose dependence ([4]; oral, 421 to 1,472 μmol/kg): increased more rapidly
plasma exposure, dose proportionality ([4]; oral, 421 to 1,472 μmol/kg): increased proportionally
localization of compound fluorescence, confirmed by thioflavin S staining of adjacent sections ([6]; Tg mouse brain sections): does localize in amyloid plaques
staining in brains of transgene-free mice ([6]; brain sections of transgene-free mice): not in brains of transgene-free mice
SMILES: COc1ccc2c(C)cc(NN=Cc3ccnc4ccccc34)nc2c1 [4-methyl-7-methoxy-2-(4-quinolylmethylenehydrazino)quinoline]
binding to plaques in vivo ([1]; Tg mice, i.v. or oral dosing): preferentially binds to human β-amyloid containing plaques
antioxidant effect [3]: demonstrated antioxidant properties
penetration to the brain tissue ([4]; oral): good penetration of the compound to the brain tissue
cell morphology, brightfield photographs ([5]; 10 μM + FAS cells versus control cells): no different than cells treated with no drug and no FAS
neuronal protection against FAS ([5]; 10 μM compound, 200 μM FAS, 3 hours, 14C-AIB uptake or LDH release): close to or complete neuronal protection
drug toxicity to neuronal cells ([5]; 30 μM, aqueous preparation (panel B)): much less drug toxicity
concentration range of concentration-dependent inhibition of FAS toxicity ([5]; 200 μM FAS, 3 hours, 14C-AIB uptake or LDH release): 0.3 to 10 µM
drug toxicity to neuronal cells [5, 8]: inherent drug toxicity
neuronal protection against FAS [5, 8]: no neuronal protection
neuronal protection against FAS ([5]; 30 and 100 μM, aqueous preparation (panel B)): considerable neuronal protection

SMILES: Nc1c(N=Nc2ccc(-c3ccc(N=Nc4cc(S(=O)(=O)[O-])c5ccccc5c4N)cc3)cc2)cc(S(=O)(=O)[O-])c2ccccc12.[Na+].[Na+] [Congo red, 3,3′-[[1,1′-biphenyl]-4,4′-diylbis(azo)]bis[4-amino-1-naphthalenesulfonic acid] disodium salt]
binding to amyloid-like proteins [7]: demonstrated binding

From patent US6589504B1, “Compounds and methods for diagnosing and treating amyloid-related conditions” (Pharmacia & Upjohn Company, priority 2000, dated 2003)
